Structures can show the parent of a compound that is named as a salt.
How the values were obtained:
[1] = tested on: Protease XXIII from Aspergillus oryzae (Sigma, Enzyme A); assay: Homogeneous aqueous enzymatic resolution (ester hydrolysis), Enzyme A; format: biochemical
Protocol: No further purification was performed.

[2] = target: T1, Protease XXVII, Nagarse (Sigma, Enzyme D) (Bacillus amyloliquefaciens, UniProt P00782); assay: Homogeneous aqueous enzymatic resolution (ester hydrolysis), Enzyme D; format: biochemical; conditions: 150 mg enzyme D
T1 construct: purchased Sigma
T1 sequence (P00782 108-382): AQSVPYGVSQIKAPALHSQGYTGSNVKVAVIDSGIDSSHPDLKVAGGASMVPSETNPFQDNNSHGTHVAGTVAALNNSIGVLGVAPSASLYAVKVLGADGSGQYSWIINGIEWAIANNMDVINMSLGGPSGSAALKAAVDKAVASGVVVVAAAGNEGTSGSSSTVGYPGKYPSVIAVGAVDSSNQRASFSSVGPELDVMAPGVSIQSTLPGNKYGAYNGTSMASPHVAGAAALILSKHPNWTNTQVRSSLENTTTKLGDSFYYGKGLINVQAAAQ

[3] = tested on: Pig Liver Esterase (Sigma E-3128, Enzyme E); assay: Homogeneous aqueous enzymatic resolution (ester hydrolysis), Enzyme E; format: biochemical; conditions: 30 mg Pig Liver Esterase (E)
[4] = target: T2, Protease VIII, Subtilopeptidase A (subtilisin Carlsberg) (Sigma, Enzyme B) (Bacillus licheniformis, UniProt P00780); assay: Homogeneous aqueous enzymatic resolution (ester hydrolysis), Enzyme B; format: biochemical; conditions: for % e.e.: acid product
T2 sequence (P00780 106-379): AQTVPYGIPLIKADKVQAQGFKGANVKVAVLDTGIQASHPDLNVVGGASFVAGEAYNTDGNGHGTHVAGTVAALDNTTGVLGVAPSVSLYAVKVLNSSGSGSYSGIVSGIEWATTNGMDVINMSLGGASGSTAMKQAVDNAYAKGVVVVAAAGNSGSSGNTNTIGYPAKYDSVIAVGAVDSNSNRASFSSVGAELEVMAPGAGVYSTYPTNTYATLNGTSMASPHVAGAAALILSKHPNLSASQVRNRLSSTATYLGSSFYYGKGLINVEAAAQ

[5] = tested on: protease Prozyme 6 from Aspergillus oryzae (Amano, Enzyme F); assay: Homogeneous aqueous enzymatic resolution (ester hydrolysis), Enzyme F; format: biochemical; conditions: for % CONVERSION: 10 mmol ester in 100 ml 0.2M buffer pH 7.0, 25 C
Protocol: (§1) The enzymatic reaction mixtures were capped and briefly shaken until all the substrate had dissolved, and the enzyme had completely dissolved or dispersed. […] Evaporation of the ether left a white solid. Rotations were measured at c=1 in CHCl3.
as §1
The reaction was started by adding 100 mg of the protease (F) from the fungus Aspergillus oryzae (from Amano Enzyme Corporation, Prozyme 6, 60,000 units per mg of solid).
After 20 hours at room temperature, the solution was acidified to pH 2 and extracted with 3 volumes of diethyl ether. The aqueous phase was saved for subsequent workup. The ether phase was washed with two volumes of distilled water and then one volume of saturated sodium chloride, and then it was dried over MgSO4 and subsequently evaporated to dryness. The resolved ibuprofen product recovered was 930 mg of white powder, indicating 45% conversion of racemic ester to acid. The optical rotation was -0.580° (measured at c=1 in ethanol), indicating the R isomer of ibuprofen.
35 mg of protease Enzyme F, as the commercial preparation Prozyme 6, were added to the aqueous solution. The reaction flask was capped, and briefly shaken until all the enzyme had dissolved or dispersed. […] The resulting mixture was diluted with one volume of water and was extracted with diethyl ether (2 times 200 ml). The ether layers were combined and backwashed with water (2 times 200 ml), saturated NaCl solution (200 ml), and then dried over MgSO4.
In this control run, a 0.5M ester solution of (1) was prepared in 325 ml of 0.1M sodium phosphate buffer (pH 7.0). The reaction was started by adding 3 gm of the above enzyme (F). The pH was controlled at 7.0 with 8.22M sodium hydroxide. After 6.49 hours at 30 ° C., 6.63 ml of hydroxide were added, indicating 37.7% conversion. The reaction was allowed to continue overnight and, after 23.1 hours, a total of 7.2 ml of sodium hydroxide were added, indicating 40.9% conversion.

[6] = tested on: lipase derived from Candida cylindracea (Genzyme, Enzyme G); assay: Asymmetric hydrolysis in a multiphase membrane bioreactor, Enzyme G
Protocol: 3.0 grams of the lipase were dissolved in 500 mls of distilled water; this solution was recirculated in an ultrafiltration mode from the shell into the lumen and back to the reservoir for 30 minutes. The ultrafiltrate was then collected until the reservoir was empty, and methyl isobutyl ketone (MIBK) was then pumped into the shell and recirculated at 400-450 ml/min with a 5-7 psig shell pressure to remove any remaining enzyme solution from the shell.
A reactor was prepared as described in Example 6.2.2.5 (naproxen) using essentially the same mode of loading the enzyme, 3.0 grams of Candida lipase (Enzyme G, from Genzyme Corporation) were ultrafiltered from the shell into the lumen. The enzyme was then washed with 2-3 l of distilled water and 1 l of potassium phosphate buffer (0.10 M, pH 7.7). The module was then drained.
No organic solvent was required as the substrate is already a water-immiscible liquid. Phosphate buffer was immediately pumped into the lumen and recirculated at 400-450 ml/min.
The reaction was monitored by following acid production based on hydroxide titration data. […] The aqueous buffer was replaced after 76 minutes and acidified to pH 2.0 with concentrated HCl in the presence of about 200 ml of chloroform.

[7] = tested on: Candida lipase (Sigma L-1754, Enzyme H); assay: Asymmetric hydrolysis in a multiphase membrane bioreactor, Enzyme H; conditions: 210 gm neat ester
Protocol: The enzyme solution was recirculated from the shell side to the lumen side and back to the solution reservoir in an ultra-filtration mode. […] The procedure was completed in one hour.
After loading the enzyme to the reactor, recirculation of 210 gm. […] The recirculation rate was 400 ml/min and the average pressure on the shell compartment was kept at 6.5 psi by adjusting a throttling valve at the shell side exit. On the lumen side 1 liter of 0.05M K was recirculated at a rate of 400 ml/min. The pH of the aqueous reservoir was kept at 7.0 by addition of 1M NaOH. The reactor was run continuously for 6.8 days.
The reaction progress and rate were monitored by following the caustic consumption. […] The initial ester substrate to the reactor had no optical rotation.

[8] = 0.010 mol ester in 100 ml 0.2M sodium phosphate pH 7.8

CC(C)Cc1ccc(C(C)C(=O)OCCCS(=O)(=O)O)cc1 (racemic) [Compound 3, Potassium Salt of 3-SulfopropylEster of 2-(4-Isobutylphenyl)propanoic Acid]
% CONVERSION ([1]; 100 mg enzyme A, 10 mmol ester in 100 ml 0.2 M phosphate buffer pH 7.0, 20-22 C, 20 hours): 50.0% | conversion of the racemic ester to acid ([1]; 1.00 gm enzyme A, about 1M ester, pH 7.0, room temperature, 23.9 hours, by NaOH titration): 29% | % CONVERSION [2, 8]: 32.0% | % e.e. ([2]; acid product, pH 7.8): 91.0% | % CONVERSION [3, 8]: 12.1% | % e.e. ([3]; acid product, pH 7.8): 88.0%

CC(C)Cc1ccc(C(C)C(=O)OCC[N+](C)(C)C)cc1 (racemic) [Compound 10, Iodide Salt of 2-(N,N,N-Trimethylammonium)ethyl Ester of 2-(4-Isobutylphenyl)propanoic Acid]
% e.e. ([1]; acid product, 100 mg enzyme A, pH 7.0, 20-22 C, 20 hours): > 99%

CC(CSC(=O)c1ccccc1)C(=O)OCS(=O)(=O)O (racemic) [Compound 16, Potassium Salt of the Sulfomethyl Ester of (±)-S-3-Benzoylthio-2-methylpropanoic Acid]
% CONVERSION ([1]; 100 mg enzyme A, 10.0 mmol ester in 100 ml 0.2M buffer pH 7.0, 25 C, 18 hours): 53% | % e.e. ([1]; acid product, 100 mg enzyme A, pH 7.0, 25 C, 18 hours): 3% | % CONVERSION ([4]; 100 mg enzyme B, 10.0 mmol ester in 100 ml 0.2M buffer pH 7.0, 25 C, 18 hours): 26% | % e.e. ([4]; 100 mg enzyme B, pH 7.0, 25 C, 18 hours): 10%

CC(C)Cc1ccc(C(C)C(=O)OCCS(=O)(=O)O)cc1 (stereo not shown) [Compound 2, Sodium Salt of 2-Sulfoethyl Ester of 2-(4-Isobutylphenyl)propanoic Acid]
% e.e. ([1]; acid product, 150 mg enzyme A, 125 ml, pH 7.0, 18 hours): > 99% | % e.e. ([4]; 150 mg enzyme B, 125 ml, pH 7.0, 18 hours): 90.0%

CC(C)Cc1ccc(C(C)C(=O)OCCCCS(=O)(=O)O)cc1 (stereo not shown) [Compound 4, Potassium Salt of 4-Sulfobutyl Ester of 2-(4-Isobutylphenyl)propanoic Acid]
% CONVERSION ([4]; 100 mg enzyme B, 10 mmol ester in 100 ml 0.2 M phosphate buffer pH 7.0, 20-22 C, 20 hours): 20.0%

COc1ccc2cc(C(C)C(=O)OCCCS(=O)(=O)O)ccc2c1 (stereo not shown) [Compound 7, Potassium Salt of the 3-Sulfopropyl Ester of 2-(6-Methoxy-2-naphthyl)propanoic Acid]
% e.e. ([1]; naproxen acid product, 150 mg enzyme A, pH 7.8, 18 hours (Table 12)): 78.0%

COc1ccc2cc(C(C)C(=O)OCCS(=O)(=O)O)ccc2c1 (stereo not shown) [Compound 8, Potassium Salt of 2-Sulfoethyl Ester of 2-(6-Methoxy-2-naphthyl) propanoic Acid]
% e.e. ([1]; naproxen acid product, 150 mg enzyme A, pH 7.8 (Table 13)): 59.0%

COc1ccc2cc(C(C)C(=O)OCS(=O)(=O)O)ccc2c1 (stereo not shown) [Compound 9, Sodium Salt of Sulfomethyl Ester of 2-(6-Methoxy-2-naphthyl)propanoic Acid]
enantiomeric excess of S isomer of Naproxen (from unconverted ester hydrolyzed at pH 12) ([1]; 100 mg enzyme A, pH 7.5, 25 degrees, 16 hours, from rotation in CHCl3): 45.5%

COc1ccc2cc(C(C)C(=O)OCC[N+](C)(C)C)ccc2c1 (stereo not shown) [Compound 11, Methyl Sulfate Salt of 2-(N,N,N-Trimethylammonium)ethyl Ester of 2-(6-Methoxy-2-naphthyl)propanoic Acid]
% CONVERSION ([5]; 100 mg Prozyme 6 (F), 18 hours): 24.3% | % e.e. ([5]; naproxen acid product, 100 mg Prozyme 6 (F), pH 7.0, 25 C, 18 hours): 34.0%

COc1ccc2cc(C(C)C(=O)OCCC[N+](C)(C)C)ccc2c1 (stereo not shown) [Compound 12, Methyl Sulfate Salt of 3-(N,N,N-Trimethylammonium)propyl Ester of 2-(6-Methoxy-2-naphthyl)propanoic Acid]
% CONVERSION ([5]; 100 mg Prozyme 6 (F), 18 hours): 34.0%

CC(Oc1ccc(Cl)cc1)C(=O)OCS(=O)(=O)O (stereo not shown) [Compound 17, Sodium Salt of the Sulfomethyl Ester of 2-(4-Chlorophenoxy)propanoic Acid]
completion of reaction ([5]; 35 mg Prozyme 6 (F), 10 mmol ester in 100 ml 0.2M sodium phosphate pH 7.0, 30 C, 1 hour): 22.5%

COC(=O)C(C)c1ccc2cc(OC)ccc2c1 (stereo not shown) [Compound 18, Methyl Ester of 2-(6-Methoxy-2-naphthyl)propanoic Acid]
average rate of hydrolysis, first 45 minutes ([6]; 0.75M ester in MIBK, 3.0 grams lipase in 0.85 m2 module, pH 8.50): 35 µmol/h

CC(C)Cc1ccc(C(C)C(=O)OCC(F)(F)F)cc1 (stereo not shown) [Compound 19, 2,2,2-Trifluoroethyl Ester of 2-(4-Isobutylphenyl)propanoic Acid]
average hydrolytic rate, first 60 minutes ([6]; neat liquid ester, 3.0 grams lipase, pH 7.7): 160 µmol/min | average hydrolysis rate, next 76 hours ([6]; neat liquid ester, 3.0 grams lipase, pH 7.7, by titrimetry): 21 µmol/min | conversion to acid ([6]; neat liquid ester, 3.0 grams lipase, pH 7.7, over the 76 hours): about 9.8%

CCCCCCCCOC(=O)C(C)Cl (stereo not shown) [Compound 20, Octyl Ester of 2-Chloropropanoic Acid]
rate of ester hydrolysis at the beginning of the experiment ([7]; 30 grams lipase loaded, pH 7.0): 186 µmol/min | initial ester hydrolyzed at termination ([7]; pH 7.0, run 6.8 days): 41% | rate of ester hydrolysis at the end of the experiment ([7]; pH 7.0, run 6.8 days): 25 µmol/min
